Activity calls are given as the source filed them.
How the values were obtained:
[1] = molecular target: Low molecular weight phosphotyrosine protein phosphatase (Homo sapiens, UniProt P24666); type: functional; details: read-out: IC50_Mean
[2] = CRF-BP/CRF-R2 complex antagonists, dose response, cell-based, uHTS hits, 384-well (AID 651639); type: functional, Homo sapiens; details: read-out: IC50_Mean
[3] = molecular target: Botulinum neurotoxin type F (Clostridium botulinum, UniProt P30996); experiment: High-throughput multiplex microsphere dose response for inhibitors of toxin protease, specifically Botulinum neurotoxin light chain F protease, compounds from Cherry Pick 02.; type: functional; details: read-out: EC50_MICROM
Botulinum neurotoxin type F, sequence (P30996 1-436 limits assumed): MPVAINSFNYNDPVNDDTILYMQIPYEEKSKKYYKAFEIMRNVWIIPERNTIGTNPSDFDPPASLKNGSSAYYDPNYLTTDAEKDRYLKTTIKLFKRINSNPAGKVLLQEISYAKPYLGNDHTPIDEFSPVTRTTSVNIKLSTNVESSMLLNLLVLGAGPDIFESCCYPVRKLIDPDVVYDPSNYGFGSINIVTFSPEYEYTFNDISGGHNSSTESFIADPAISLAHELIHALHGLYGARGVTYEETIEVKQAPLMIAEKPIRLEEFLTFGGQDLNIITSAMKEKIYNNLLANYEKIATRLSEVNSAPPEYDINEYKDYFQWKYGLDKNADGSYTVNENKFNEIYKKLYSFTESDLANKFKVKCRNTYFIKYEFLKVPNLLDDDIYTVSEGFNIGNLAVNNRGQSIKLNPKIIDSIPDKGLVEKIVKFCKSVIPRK

Beta Lactamase = Beta Lactamase (Pseudomonas aeruginosa, UniProt Q932Y6);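 further: confirmatory high-throughput screen measuring VIM-2 metallo-beta-lactamase inhibition by epi-absorbance in dose response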
Beta Lactamase, sequence (Q932Y6 whole entry): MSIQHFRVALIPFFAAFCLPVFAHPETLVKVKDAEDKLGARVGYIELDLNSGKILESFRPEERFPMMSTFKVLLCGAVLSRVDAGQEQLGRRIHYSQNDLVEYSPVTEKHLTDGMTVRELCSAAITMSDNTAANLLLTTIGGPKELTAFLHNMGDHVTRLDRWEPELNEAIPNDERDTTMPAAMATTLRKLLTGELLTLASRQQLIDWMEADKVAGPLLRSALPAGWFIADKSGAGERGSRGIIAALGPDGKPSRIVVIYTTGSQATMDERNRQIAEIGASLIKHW

Beta-lactamase [4] = molecular target: Beta-lactamase (Pseudomonas aeruginosa, UniProt Q79MP6);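 further: biochemical dose-response test of metallo-beta-lactamase enzyme inhibition, read out by epi-absorbance; purified recombinant IMP-1 metallo-beta-lactamase with nitrocefin as substrate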
Beta-lactamase (Pseudomonas aeruginosa, UniProt Q79MP6), sequence (Q79MP6 whole entry): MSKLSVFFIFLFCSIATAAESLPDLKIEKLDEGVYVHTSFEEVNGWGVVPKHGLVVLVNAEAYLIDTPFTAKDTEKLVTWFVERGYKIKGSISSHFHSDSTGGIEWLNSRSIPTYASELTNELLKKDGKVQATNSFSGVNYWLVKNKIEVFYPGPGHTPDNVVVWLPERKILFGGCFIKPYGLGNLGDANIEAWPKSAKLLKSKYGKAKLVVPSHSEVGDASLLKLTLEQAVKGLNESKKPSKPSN

Beta-lactamase [5] = molecular target: Beta-lactamase (Salmonella choleraesuis (strain SC-B67), UniProt Q5J463)
Beta-lactamase (Salmonella choleraesuis (strain SC-B67), UniProt Q5J463), sequence (Q5J463 whole entry): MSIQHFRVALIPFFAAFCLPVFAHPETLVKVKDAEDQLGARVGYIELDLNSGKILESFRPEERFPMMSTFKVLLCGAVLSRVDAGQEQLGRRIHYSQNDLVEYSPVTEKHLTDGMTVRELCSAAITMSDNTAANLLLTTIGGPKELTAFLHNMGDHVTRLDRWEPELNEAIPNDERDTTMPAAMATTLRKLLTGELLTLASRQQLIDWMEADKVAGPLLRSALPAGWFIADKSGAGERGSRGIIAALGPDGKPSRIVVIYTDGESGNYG

[6] = molecular target: Potassium voltage-gated channel subfamily KQT member 2 (Rattus norvegicus, UniProt O88943); experiment: KCNQ2 potassium channel inhibitors, dose response, cell-based, automated electrophysiology, set II, rat KCNQ2 (AID 588637); type: functional
Potassium voltage-gated channel subfamily KQT member 2, sequence (O88943 whole entry): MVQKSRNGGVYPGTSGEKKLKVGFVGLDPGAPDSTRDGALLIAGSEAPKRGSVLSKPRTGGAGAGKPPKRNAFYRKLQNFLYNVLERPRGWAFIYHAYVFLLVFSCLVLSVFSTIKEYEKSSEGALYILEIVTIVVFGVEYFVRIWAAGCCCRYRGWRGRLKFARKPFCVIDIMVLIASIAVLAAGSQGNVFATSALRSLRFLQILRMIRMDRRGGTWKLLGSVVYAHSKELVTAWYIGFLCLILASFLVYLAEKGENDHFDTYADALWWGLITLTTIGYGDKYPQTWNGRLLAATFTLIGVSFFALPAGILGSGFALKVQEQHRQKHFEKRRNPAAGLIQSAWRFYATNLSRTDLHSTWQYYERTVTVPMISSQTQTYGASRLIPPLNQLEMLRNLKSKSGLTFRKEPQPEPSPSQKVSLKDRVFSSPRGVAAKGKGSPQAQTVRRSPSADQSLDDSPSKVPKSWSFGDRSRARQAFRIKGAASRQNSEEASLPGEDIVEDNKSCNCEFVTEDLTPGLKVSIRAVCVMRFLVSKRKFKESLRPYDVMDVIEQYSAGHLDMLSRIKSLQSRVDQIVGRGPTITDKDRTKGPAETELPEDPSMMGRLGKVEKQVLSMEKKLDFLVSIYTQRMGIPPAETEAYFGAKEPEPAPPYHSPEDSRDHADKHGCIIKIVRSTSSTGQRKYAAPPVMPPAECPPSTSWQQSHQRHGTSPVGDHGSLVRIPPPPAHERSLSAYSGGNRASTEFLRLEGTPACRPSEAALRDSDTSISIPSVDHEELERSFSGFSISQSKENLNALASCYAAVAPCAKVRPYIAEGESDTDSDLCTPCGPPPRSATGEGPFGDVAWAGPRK

[7] = Luminescence Cell-Based Dose Retest to Confirm Inhibitors of Cancer Stem Cells. [Related pubchem assays (depositor defined):AID2717, AID2721]; type: functional; details: Homo sapiens
Vero = experiment: Vero cell toxicity, dose response, cytotoxicity control, plate reader, cherry-pick samples (AID 687020); type: functional, cell-based; details: Chlorocebus sabaeus
BHK-21 = experiment: BHK-21 cell toxicity, dose response, cytotoxicity control, plate reader, cherry-pick samples (AID 687030); type: functional, cell-based; details: Mesocricetus auratus
A549 = experiment: A549 cell toxicity, dose response, cytotoxicity control, plate reader, cherry-pick samples (AID 687028); type: functional, cell-based; details: Homo sapiens
[8] = test system: Streptococcus sp. 'group A'; experiment: growth inhibition of control SK(-) GAS strain, dose response, counter-screen for streptokinase expression inhibitor project, luminescence, kanamycin, BacTiterGlo, confirmation (AID 1900); type: functional, organism-based
Streptokinase A = molecular target: T1, Streptokinase A (Streptococcus pyogenes serotype M1, UniProt P10520); experiment: S. pyogenes streptokinase expression inhibitors, potency, dose response, plasminogen activation absorbance, OD405 (AID 1914); type: functional, Streptococcus pyogenes M1 GAS;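 further: secreted streptokinase activity via plasminogen activation per viability signal from cell pellet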
T1 sequence (P10520 whole entry): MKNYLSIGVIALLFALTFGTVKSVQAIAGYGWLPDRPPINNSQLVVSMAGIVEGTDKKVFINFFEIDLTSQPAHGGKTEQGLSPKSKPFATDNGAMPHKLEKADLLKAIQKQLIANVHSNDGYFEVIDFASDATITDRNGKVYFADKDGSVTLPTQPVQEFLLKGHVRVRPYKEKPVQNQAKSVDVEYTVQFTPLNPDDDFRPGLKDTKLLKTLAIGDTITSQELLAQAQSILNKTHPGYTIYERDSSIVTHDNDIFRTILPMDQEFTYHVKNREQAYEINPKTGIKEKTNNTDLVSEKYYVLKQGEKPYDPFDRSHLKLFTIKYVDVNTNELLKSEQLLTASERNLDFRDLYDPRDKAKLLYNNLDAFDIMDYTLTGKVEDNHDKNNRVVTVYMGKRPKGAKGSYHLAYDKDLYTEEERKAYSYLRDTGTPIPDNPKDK

Streptococcus = experiment: Group A Streptococcus viability loss, dose response, counter-screen for streptokinase expression inhibitor project, luminescence, BacTiterGlo (AID 1915); type: functional, organism-based;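 further: potency for reduction of bacterial viability or growth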
[9] = molecular target: Matrix metalloproteinase-14 (Homo sapiens, UniProt P50281); experiment: Dose Response confirmation of uHTS hits for a small molecule inhibitors of MT1-MMP activation in a fluorescence assay set 1.; type: functional

Low molecular weight phosphotyrosine protein phosphatase, sequence (P24666 whole entry): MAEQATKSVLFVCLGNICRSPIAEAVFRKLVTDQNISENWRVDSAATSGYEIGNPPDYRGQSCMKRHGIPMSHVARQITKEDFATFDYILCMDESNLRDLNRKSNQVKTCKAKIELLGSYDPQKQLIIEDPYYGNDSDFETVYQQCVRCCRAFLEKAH

O=C(O)[C@@H]1[C@H]2C[C@H]3c4[nH]c5ccccc5c4CCN3C[C@@H]2CC[C@@H]1O
IC50 [1]: 67.6 µM (inactive)

Cc1sc2nc(CN(Cc3cccs3)C(=O)NC3CCCCC3)nc(O)c2c1C
IC50 [2]: 19.7 µM (active)

Cc1cc2nc(-c3cccc(Br)c3)c(Cc3cccc(Cl)c3)n2c(C)c1Br
EC50 [3]: > 20 µM (inactive)

CC(=O)N(c1cccc(C)c1)C1SC(=O)N(c2ccccc2)C1=O (stereo not given)
IC50 (Beta Lactamase): 54.3 µM (inactive)
IC50 (Beta-lactamase [4]): 30.8 µM (inactive)
IC50 (Beta-lactamase [5]): > 59.6 µM (inactive)

O=C(CN1C(=O)C(c2ccccc2)Oc2cccnc21)NCc1ccccc1F (stereo not given)
IC50 [6]: 1.81 µM (active)

CC1CCCN(CCCOc2ccc(Br)cc2Cl)C1 (stereo not given)
AC50 [7]: 8.98 µM (active)
AC50 (Vero): 25.2 µM (active)
AC50 (BHK-21): 38.8 µM (active)
AC50 (A549): 27.2 µM (active)

N#CC(C#N)=NNc1ccc([N+](=O)[O-])cc1
EC50 [8]: 3.82 µM (active)
EC50 (Streptokinase A): > 150 µM (not active)
EC50 (Streptococcus): 9.99 µM (active)
IC50 [9]: 32.3 µM (inactive)

Reference: ChEMBL document CHEMBL1201862, “PubChem BioAssay data set” (2004)
